Assay results as given in US20140235776A1, “AMINOALCOHOL COMPOUNDS AND THEIR USE AS ZERO OR LOW VOC ADDITIVES FOR PAINTS AND COATINGS” (ANGUS CHEMICAL COMPANY, priority 2011, published 2014).
Read-outs that look alike come from different tables or passages of the source.

Experiments:
Assay type in all cases: physicochemical
[1] = pKa of neutralizing amines
[2] = VOC testing according to ASTM D6886-rev (gas chromatography); settings: neutralizer in a finished paint formulation, GC conditions of Table 2
Description: VOC properties are tested according to the ASTM D6886-rev method.

[3] = Freeze-thaw cycles of paint samples, viscosity by Krebs Stormer Viscometer; settings: for Viscosity after Freeze-Thaw cycles (KU), 2nd cycle / Viscosity after Freeze-Thaw cycles (KU), 3rd cycle / Viscosity after Freeze-Thaw cycles (KU), 4th cycle / Viscosity after Freeze-Thaw cycles (KU), 5th cycle / Viscosity after Freeze-Thaw cycles (KU), 1st cycle: additive 2 wt %; for Initial Viscosity (KU): additive 2 wt % post-add in paint of Table 8, before freeze-thaw; for Viscosity after Freeze-Thaw cycles (KU), 1st cycle: cycle = −18° C. 17 hours, 25° C. 7 hours; for freeze-thaw survival of paint sample (in words): added as post-add, 2 wt %
Description: Preparation of paint formulations containing compounds of the invention: The paint formulations are prepared using F/T agent 1 and 2 as shown by structures below. The octanol water partition coefficients are calculated for these compounds using the method of Moriguchi et al., Chem. Pharm. Bull. 40(1), 127-130 (1992). The calculated octanol-water partition coefficients for F/T-1 and F/T-2 are −2.59, and −3.99, respectively. […] Paint samples are frozen at −18° C. for 17 hours and then thawed at 25° C. for 7 hours. This constitutes 1 complete freeze-thaw cycle. Viscosities are measured after each freeze-thaw cycle using a Krebs Stormer Viscometer from Sheen at room temperature. The viscosity is measured in Krebs unit (KU). The results of freeze-thaw cycles on paint samples that contain zero-VOC compounds of the invention as post-adds are listed in the Table 9. The post-add compounds are mixed at 2 wt % in the paint samples. The same paint formulation is used in preparing all the samples. The paint sample without any post-add is designated as “Blank.”
The KU values below 150 as reported in Table 9 are considered acceptable, and all the values (other than that for the Blank) reported are considered very acceptable.

[4] = pH of paint formulation (digital pH meter); settings: for pH: Zero VOC Flat Formulation, vinyl acrylic latex; for pH, 1 day 25° C.: Zero VOC Semi Gloss Formulation, acrylic latex
Description: pH, Low Shear and High Shear Viscosity.
The pH of each formulation is measured with a digital pH meter with a glass combination pH probe. Krebs-units (KU) viscosity is measured with Brookfield model KU viscometer with digital display (ASTM D562), at 25° C.

[5] = High shear (ICI) viscosity of paint, ASTM D 4287; settings: in P (unit assumed)
Description: (§1) The pH of each formulation is measured with a digital pH meter with a glass combination pH probe. Krebs-units (KU) viscosity is measured with Brookfield model KU viscometer with digital display (ASTM D562), at 25° C. The high shear (“ICI”) viscosity is measured according to ASTM D 4287 using a Brookfield CAP 1000+ viscometer at a shear rate of 12,000 s^−1 at 900 rpm, with a 0.45° cone of radius 1.511 cm, and a sample temperature controlled at 25° C.

[6] = Krebs-units (KU) low shear viscosity of paint, ASTM D562
Description: as §1

[7] = read-out: pKa (first value, pK1)
[8] = read-out: pKa (second value, pK2)
[9] = Zero VOC Semi Gloss Formulation

| pKa [1, 7] | pKa [1, 8] | VOC contributed by neutralizers [2] [%^2] | Viscosity after Freeze-Thaw cycles (KU), 2nd cycle [3] [KU] | Viscosity after Freeze-Thaw cycles (KU), 3rd cycle [3] [KU] | Viscosity after Freeze-Thaw cycles (KU), 4th cycle [3] [KU] | Viscosity after Freeze-Thaw cycles (KU), 5th cycle [3] [KU] | Initial Viscosity (KU) [3] [KU] | Viscosity after Freeze-Thaw cycles (KU), 1st cycle [3] [KU] | Structure (SMILES) | other results |
| --- | --- | --- | --- | --- | --- | --- | --- | --- | --- | --- |
| 8.9 | 4.6 | 0 |  |  |  |  |  |  | OCC(O)CNCCN(CCNCC(O)CO)CC(O)CO (centres unmarked) [DETA Glyc, 3,3′-((((2,3-dihydroxypropyl)azanediyl)bis(ethane-2,1-diyl))bis(azanediyl))bis(propane-1,2-diol)] |  |
| 9.7 | 5.8 | 0 |  |  |  |  |  |  | CC(C)(N)CNCCOCCOCCNCC(C)(C)N [EDBDA bis-AMP, N1,N1′-((ethane-1,2-diylbis(oxy))bis(ethane-2,1-diyl))bis(2-methylpropane-1,2-diamine), reference compound] |  |
|  |  |  | 111.1 | 112.7 | 111.8 | 109.5 | 89.5 | 108 | OCC(O)CNCCN(CCNCC(O)CO)CC(O)CO (centres unmarked) [F/T Agent 1, 3,3′-((((2,3-dihydroxypropyl)azanediyl)bis(ethane-2,1-diyl))bis(azanediyl))bis(propane-1,2-diol)] | freeze-thaw survival of paint sample (in words) [3]: survive five freeze-thaw cycles |
|  |  |  | 113.1 | 114 | 121.7 | 116.3 | 88.2 | 110.4 | OCC(O)CN(CCN(CC(O)CO)CC(O)CO)CCN(CC(O)CO)CC(O)CO (centres unmarked) [F/T Agent 2, 3,3′,3″,3′′′-((((2,3-dihydroxypropyl)azanediyl)bis(ethane-2,1-diyl))bis(azanetriyl))tetrakis(propane-1,2-diol)] | freeze-thaw survival of paint sample (in words) [3]: survive five freeze-thaw cycles |
|  |  |  |  |  |  |  |  |  | [Na+].[OH-] [NaOH, sodium hydroxide, reference compound] | pH [4]: 8.56; pH, 1 day 25° C. [4]: 9.47; ICI Viscosity, 1 day 25° C. ([5]; Zero VOC Flat Formulation): 1.184; ICI Viscosity, 1 day 25° C. [5, 9]: 1.059; KU Viscosity, 1 day 25° C. ([6]; Zero VOC Flat Formulation): 86 KU; KU Viscosity, 1 day 25° C. [6, 9]: 89.1 KU |
|  |  |  | 103.2 | 115.1 | 99.4 | 98.2 | 89.8 | 101.3 | CC(O)CO (centres unmarked) [Propylene Glycol, propylene glycol, reference compound] |  |
| 8.7 | 4.8 | 0 |  |  |  |  |  |  | CC(O)CNCCN(CCNCCN(CCNCC(C)O)CC(C)O)CC(C)O (centres unmarked) [TEPA 4PO, 7,13-bis(2-hydroxypropyl)-4,7,10,13,16-pentaazanonadecane-2,18-diol] |  |
|  |  |  |  |  |  |  |  |  | CC(O)CNCCNCCN(CCNCC(C)O)CC(C)O (centres unmarked) [TETA 3PO, 7-(2-hydroxypropyl)-4,7,10,13-tetraazahexadecane-2,15-diol] | pH [4]: 8.51; pH, 1 day 25° C. [4]: 9.46; ICI Viscosity, 1 day 25° C. ([5]; Zero VOC Flat Formulation): 1.29; ICI Viscosity, 1 day 25° C. [5, 9]: 1.018; KU Viscosity, 1 day 25° C. ([6]; Zero VOC Flat Formulation): 92.8 KU; KU Viscosity, 1 day 25° C. [6, 9]: 85.9 KU |

| Structure (SMILES) | pKa [1, 7] | pKa [1, 8] | VOC contributed by neutralizers [2] [%^2] | Viscosity after Freeze-Thaw cycles (KU), 2nd cycle [3] [KU] | Viscosity after Freeze-Thaw cycles (KU), 3rd cycle [3] [KU] | Viscosity after Freeze-Thaw cycles (KU), 4th cycle [3] [KU] | Viscosity after Freeze-Thaw cycles (KU), 5th cycle [3] [KU] | Initial Viscosity (KU) [3] [KU] | Viscosity after Freeze-Thaw cycles (KU), 1st cycle [3] [KU] | other results |
| --- | --- | --- | --- | --- | --- | --- | --- | --- | --- | --- |
| OCCOCCO [Diethylene Glycol, diethylene glycol, reference compound] |  |  |  | 105.1 | 106.9 | 100.6 | 98 | 91.0 | 101.1 |  |
